The record followed here is US7202261B2, “Calcilytic compounds” (NPS Pharmaceuticals, Inc., priority 1996, dated 2007).

Where a name gives a salt, the structure may show the parent alone.

The first experiment concerns the target T1, human calcium receptor (Homo sapiens, UniProt P41180).
T1 construct: expressed in transfected cells
T1 sequence (P41180 20-1078): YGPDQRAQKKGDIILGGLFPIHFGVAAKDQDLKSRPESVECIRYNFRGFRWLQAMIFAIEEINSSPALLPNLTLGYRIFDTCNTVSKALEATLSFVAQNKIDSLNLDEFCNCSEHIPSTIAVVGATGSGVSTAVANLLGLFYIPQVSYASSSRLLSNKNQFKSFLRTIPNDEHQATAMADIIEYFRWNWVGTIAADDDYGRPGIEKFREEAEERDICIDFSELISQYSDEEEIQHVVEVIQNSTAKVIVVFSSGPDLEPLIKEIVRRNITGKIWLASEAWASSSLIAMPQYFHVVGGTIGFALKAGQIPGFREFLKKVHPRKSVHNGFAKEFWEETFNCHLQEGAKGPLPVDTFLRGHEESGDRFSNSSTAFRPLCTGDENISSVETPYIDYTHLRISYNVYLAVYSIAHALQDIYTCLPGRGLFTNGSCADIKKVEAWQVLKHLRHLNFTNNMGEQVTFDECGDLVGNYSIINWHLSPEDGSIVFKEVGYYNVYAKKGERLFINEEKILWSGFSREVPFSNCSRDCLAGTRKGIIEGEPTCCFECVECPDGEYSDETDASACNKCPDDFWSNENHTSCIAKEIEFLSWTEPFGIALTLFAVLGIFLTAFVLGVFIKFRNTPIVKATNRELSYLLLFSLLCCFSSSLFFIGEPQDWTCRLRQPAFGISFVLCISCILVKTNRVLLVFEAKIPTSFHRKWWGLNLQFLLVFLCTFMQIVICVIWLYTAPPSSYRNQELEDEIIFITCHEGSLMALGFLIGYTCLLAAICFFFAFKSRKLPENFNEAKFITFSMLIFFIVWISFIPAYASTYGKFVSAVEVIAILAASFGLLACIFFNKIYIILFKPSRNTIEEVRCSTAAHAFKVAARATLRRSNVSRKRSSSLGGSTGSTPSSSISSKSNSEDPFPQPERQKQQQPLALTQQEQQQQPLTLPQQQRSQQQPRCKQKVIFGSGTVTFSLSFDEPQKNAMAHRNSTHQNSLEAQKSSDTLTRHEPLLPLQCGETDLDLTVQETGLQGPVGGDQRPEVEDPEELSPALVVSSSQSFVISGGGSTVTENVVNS
Kind of experiment: Calcium Receptor Inhibitor Assay.
Conditions: not given
Format: cell-based. In a few lines: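 Intracellular Ca^2+ measured with fluo-3 at 37° C in stirred cell suspension. Buffer held 1 mM CaCl2 and 1 mg/mL D-glucose. Compound or vehicle added 90 seconds before extracellular Ca^2+ was raised from 1 to 2 mM, and calcilytic activity scored as concentration-dependent block of the intracellular Ca^2+ rise.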
Turning to `COc1ccc(CC(C)(C)NCC(O)COC2CCCCC2C#N)cc1` (stereo not shown) [Compound 131, N-[2-hydroxy-3-(2-cyano-cyclohexyloxy)propyl-1,1-dimethyl-2-(4-methoxyphenyl)ethylamine Hydrochloride], the concentration for half-maximal inhibition (IC50) was less than 1 µM. Same read-out and setting: to `COc1ccc(CC(C)(C)NCC(O)CCc2cccc(Cl)c2Cl)cc1` (racemic) [Compound 163] belongs less than 1 µM.

Still in this experiment, the particulars now being: HEK 293 4.0–7 cells stably expressing the human calcium receptor; fluo-3; read-out: IC50 for blocking increases of intracellular Ca2+ elicited by extracellular Ca2+.
For the compound `COc1ccc(CC(C)(C)NCC(O)COc2cccc(Cl)c2)cc1` (stereo not shown) [Compound 43, N-[2-Hydroxy-3-(3-chlorophenoxy)propyl]-1,1-dimethyl-2-(4-methoxyphenyl)ethylamine Hydrochloride], the IC50 is less than 1 µM. Same read-out and setting: to `COc1ccc(CC(C)(C)NC[C@H](O)COc2cccc(Cl)c2Cl)cc1` [Compound 116, (S)—N-[2-Hydroxy-3-(2,3-dichlorophenoxy)propyl]-1,1-dimethyl-2-(4-methoxyphenyl)ethyl amine Hydrochloride] belongs less than 1 µM; to `COc1ccc(CC(C)(C)NCC(O)COc2cccc(Cl)c2C#N)cc1` (stereo not shown) [Compound 119, N-[2-Hydroxy-3-(3-chloro-2-cyanophenoxy)propyl]-1,1-dimethyl-2-(4-methoxyphenyl)ethylamine Hydrochloride], less than 1 µM. On the same count and under the same terms, with `CC(C)(Cc1cccc(Cl)c1)NCC(O)COc1ccccc1` (stereo not shown) [Compound 104, N-(2-Hydroxy-3-phenoxypropyl)-1,1-dimethyl-2-(3-chlorophenyl)ethylamine Hydrochloride] the figure was less than 10 µM; with `CCc1ccccc1OCC(O)CNC(C)(C)Cc1ccc(OC)cc1` (stereo not shown) [Compound 151, N-[2-hydroxy-3-(2-ethylphenoxy)propyl]-1,1-dimethyl-2-(4-methoxyphenyl)ethylamine Hydrochloride], less than 1 µM. `COc1ccc(CC(C)(C)NCC(O)COc2ccc(C#N)cc2)cc1` (stereo not shown) [Compound 161, N-(2-hydroxy-3-(4-cyanophenoxy)propyl]-1,1-dimethyl-2-(4-methoxyphenyl)ethylamine Hydrochloride]: the half-inhibitory concentration (IC50) was less than 10 µM. In the case of `COc1ccc(CC(C)(C)NCC(O)COc2ccccc2F)cc1` (stereo not shown) [Compound 41, N-[2-Hydroxy-3-(2-fluorophenoxy)propyl]-1.1-dimethyl-2-(4-methoxyphenyl)ethylamine Hydrochloride], the concentration for half-maximal inhibition (IC50) was less than 10 µM. The same measure, in the same setting: to `CC(C)(Cc1ccc(F)cc1)NCC(O)COc1cccc2ccccc12` (stereo not shown) [Compound 2, N-[2-Hydroxy-3-(1-naphthoxy)propyl]-1,1-dimethyl-2-(4-fluorophenyl)ethylamine Hydrochloride] belongs less than 10 µM. Same read-out and setting: with `COc1ccc(CC(C)(C)NCCCOc2cccc3ccccc23)cc1` [Compound 42, N-(3-(1-napthoxy)propyl)-1,1-dimethyl-2-(4-methoxyphenyl)] the figure was less than 50 µM. Same read-out and setting: to `COc1ccc(CC(C)(C)NCC(O)COc2ccc(Cl)c(Cl)c2)cc1` (stereo not shown) [Compound 139, N-[2-hydroxy-3-(3,4-dichlorophenoxy)propyl]-1,1-dimethyl-2-(4-methoxyphenyl)ethylamine Hydrochloride] belongs less than 1 µM; to `COc1ccc(CC(C)(C)NCC(O)COc2cccc(Cl)c2Cl)cc1` (stereo not shown) [Compound 136, N-[2-hydroxy-3-(2,3-dichlorophenoxy)propyl]-1,1-dimethyl-2-(4-methoxyphenyl)ethylamine Hydrochloride], less than 1 µM; to `COc1ccc(CC(C)(C)NCC(O)COc2cccc3ccccc23)cc1` (stereo not shown) [Compound 19, N-[2-Hydroxy-3-(1-naphthoxy)propyl]-1,1-dimethyl-2-(4-methoxyphenyl)ethylamine Hydrochloride], less than 1 µM. For `COc1ccc(CC(C)(C)NCC(O)COC23CC4CC(CC(C4)C2)C3)cc1` (stereo not shown) [Compound 96, N-[2-Hydroxy-3-(1-adamantanoxy)propyl]-1-1,1-dimethyl-2-(4-methoxyphenyl)ethyl amine], the half-maximal inhibitory concentration (IC50) is less than 1 µM. Same read-out and setting: with `CCCCCCCCCCOCC(O)CNC(C)(C)Cc1ccc(OC)cc1` (stereo not shown) [Compound 67, N-(2-Hydroxy-3-decanoxypropyl)-1,1-dimethyl-2-(4-methoxyphenyl)ethylamine] the figure was less than 1 µM.
